Patent US20260055077A1, “PROTEIN DEGRADATION AGENT” (SUZHOU KINTOR PHARMACEUTICALS, INC., priority 2022, published 2026)

The compounds below were run on HL60 cells (assay: Anti-proliferation ability of compounds on HL60 cells (CellTiter-Glo)). Details: Homo sapiens, HL-60, 72 h, incubated 3 days, CTG luminescence, IC50 calculated by XLfit.
Format: cell-based
Procedure: • I. Anti-proliferation ability of compounds on HL60 cells • Activity test methods: • 1. Cell plating • HL60 cells in the logarithmic growth phase were counted and plated evenly in a 96-well transparent bottom white plate at 20000 cells per well and […] per well. • 2. Drug addition to cells • A certain amount of the compounds was weighed and diluted with DMSO to a 10 mM stock solution. The culture mediums corresponding to the cells were taken, and the drugs were diluted to the concentration required by the test, shaken gently and mixed evenly. 50 μl of the gradient dilution of the diluted compound was added to each well of the plated cells, and 50 μl of 0.1% DMSO was added to the control group. The plate was shaken gently, mixed evenly and incubated in a cell culture incubator for 3 days. • 3. CTG detection • 3.1 The CellTiter-Glo™ (CTG) reagent was taken in advance from the −20° C. refrigerator and equilibrated to room temperature in the dark. • 3.2 The 96-well plate was taken out and inspected under a microscope for growth situation. • 3.3 The bottom of the 96-well plate was tagged with white paper, and then the plate was wrapped with tin foil paper, shaken at 37° C. at 300 r for 10 mina and mixed evenly. • 3.4 50 ul of CTG detection reagent was added to each well, Luminescence signal was detected using a microplate reader, and the inhibition rate was calculated. IC50 values of the compounds were calculated by XLfit software to evaluate the proliferation inhibitory activity on 11160 cells.
`O=C1CCC(N2Cc3cc(C(=O)NCc4ccc(CN(CCc5cccc6ccccc56)C(=O)CS)cc4)ccc3C2=O)C(=O)N1` (stereo not shown) [KT-042] was tested, and the IC50 was 34 ± 7 nM.
In the case of `CC(=O)c1ccc(N2CCN(Cc3ccc(C(=O)NCc4ccc5c(c4)CN(C4CCC(=O)NC4=O)C5=O)cc3)CC2)cc1Cl` (stereo not shown) [KT-041], the IC50 is reported as < 3.04 nM.
Compound `O=C1CCC(N2Cc3cc(CNC(=O)c4ccc(CN5CCN(c6ccc(O)c(Cl)c6)CC5)cc4)ccc3C2=O)C(=O)N1` (stereo not shown) [KT-017] has an IC50 of 10.5 ± 0.4 nM.
For `O=C1CCC(N2Cc3cc(C(=O)NCc4ccc(CN(CCO)CCc5ccccc5)cc4)ccc3C2=O)C(=O)N1` (stereo not shown) [KT-001], the IC50 was < 3.04 nM.
For `CN(CCc1ccccc1)Cc1ccc(C(=O)NCc2ccc3c(c2)CN(C2CCC(=O)NC2=O)C3=O)c(O)c1` (stereo not shown) [KT-034], the IC50 was 9.9 ± 3 nM.
For `O=C1CCC(N2Cc3cc(C(=O)NCc4ccc(CNCCc5cccc6ccccc56)cc4)ccc3C2=O)C(=O)N1` (stereo not shown) [KT-025], the IC50 was < 3.04 nM.
Work on `O=C1CCC(N2Cc3cc(CNC(=O)c4ccc(CN5CCN(c6ccc(OCCO)c(Cl)c6)CC5)cc4)ccc3C2=O)C(=O)N1` (stereo not shown) [KT-019] yielded an IC50 of 2.8 ± 0.1 nM.
For `O=C1CCC(N2Cc3cc(NC(=O)CC4CCN(c5ncc(-c6cccc7cccnc67)cc5CO)CC4)ccc3C2=O)C(=O)N1` (stereo not shown) [KT-028], the IC50 was < 0.34 nM.
For `O=C1CCC(N2Cc3cc(C(=O)NCc4ccc(CN(CCO)CCc5ccc(Cl)c(Cl)c5)cc4)ccc3C2=O)C(=O)N1` (stereo not shown) [KT-002], the IC50 was < 3.04 nM.
Compound `Cc1ccc(N2CCN(Cc3ccc(C(=O)NCc4ccc5c(c4)CN(C4CCC(=O)NC4=O)C5=O)cc3)C(CO)C2)cc1Cl` (stereo not shown) [KT-022] has an IC50 of 1.03 ± 0.19 nM.
In the case of `NCc1cc(-c2cccc3cccnc23)cnc1N1CCC(CC(=O)Nc2ccc3c(c2)CN(C2CCC(=O)NC2=O)C3=O)CC1` (stereo not shown) [KT-029], the IC50 is reported as 0.57 ± 0.1 nM.
`NCCOc1cc(-c2cccc3cccnc23)cnc1N1CCC(CC(=O)Nc2ccc3c(c2)CN(C2CCC(=O)NC2=O)C3=O)CC1` (stereo not shown) [KT-032] gave an IC50 of 5620 nM.
`O=C1CCC(N2Cc3cc(CNC(=O)c4ccc(CN5CCN(c6ccc(CO)c(Cl)c6)CC5)cc4)ccc3C2=O)C(=O)N1` (stereo not shown) [KT-018] was tested, and the IC50 was 2.17 ± 0.78 nM.
With `O=C1CCC(N2Cc3cc(NC(=O)CC4CCN(c5ncc(-c6cccc7cccnc67)cc5OCCO)CC4)ccc3C2=O)C(=O)N1` (stereo not shown) [KT-031] the IC50 was < 0.34 nM.
Work on `O=C1CCC(N2Cc3cc(C(=O)NCc4ccc(CN(Cc5ccccc5)C(=O)CO)cc4)ccc3C2=O)C(=O)N1` (stereo not shown) [KT-016] yielded an IC50 of 3.04 ± 0.84 nM.
`O=C1CCC(N2Cc3cc(C(=O)NCc4ccc(CN(CCc5ccccc5)C(=O)CCO)cc4)ccc3C2=O)C(=O)N1` (stereo not shown) [KT-033] gave an IC50 of 6 ± 1.6 nM.
Work on `O=C1CCC(N2Cc3cc(C(=O)NCc4ccc(CN(CCc5ccccc5)C(=O)NCCO)cc4)ccc3C2=O)C(=O)N1` (stereo not shown) [KT-015] yielded an IC50 of 24.2 ± 10.1 nM.
In the case of `O=C(Cn1c2ccccc2c2cccnc21)NCc1ccc(CNC(=O)c2ccc3c(c2)CN(C2CCC(=O)NC2=O)C3=O)c(OCCO)c1` (stereo not shown) [KT-006], the IC50 is reported as 2.19 ± 1.5 nM.
`O=C1CCC(N2Cc3cc(C(=O)NCc4ccc(CN(CCO)CCc5cccc6ccccc56)cc4)ccc3C2=O)C(=O)N1` (stereo not shown) [KT-003] was tested, and the IC50 was 0.71 ± 0.04 nM.
`O=C1CCC(N2Cc3cc(NC(=O)CC4CCN(c5ncc(Br)cc5CO)CC4)ccc3C2=O)C(=O)N1` (stereo not shown) [KT-026] showed an IC50 of 23 ± 3 nM.
For `CN(Cc1ccc(C(=O)NCc2ccc3c(c2)CN(C2CCC(=O)NC2=O)C3=O)cc1)CC(O)c1ccccc1` (stereo not shown) [KT-013], the IC50 was 3.45 ± 0.52 nM.
With `O=C1CCC(N2Cc3cc(NC(=O)CC4CCN(c5ncc(-c6nccc7ccccc67)cc5CO)CC4)ccc3C2=O)C(=O)N1` (stereo not shown) [KT-030] the IC50 was < 0.34 nM.
`Cc1ccc(N2CCN(Cc3ccc(C(=O)NCc4ccc5c(c4)CN(C4CCC(=O)NC4=O)C5=O)c(O)c3)CC2)cc1Cl` (stereo not shown) [KT-020] showed an IC50 of 1.36 ± 0.67 nM.

The compounds below were run against T1, c-Myc (Homo sapiens, UniProt P01106) (assay: Protein degradation experiment (Western blot), c-Myc in HL60 cells). Details: 6 h of drug treatment, FIG. 1, at lower concentration (about 3 μm to 10 nmn).
T1 construct: endogenous in cells; host or cells: HL60 (human acute promyelocytic leukemia cells)
T1 sequence (P01106 whole entry): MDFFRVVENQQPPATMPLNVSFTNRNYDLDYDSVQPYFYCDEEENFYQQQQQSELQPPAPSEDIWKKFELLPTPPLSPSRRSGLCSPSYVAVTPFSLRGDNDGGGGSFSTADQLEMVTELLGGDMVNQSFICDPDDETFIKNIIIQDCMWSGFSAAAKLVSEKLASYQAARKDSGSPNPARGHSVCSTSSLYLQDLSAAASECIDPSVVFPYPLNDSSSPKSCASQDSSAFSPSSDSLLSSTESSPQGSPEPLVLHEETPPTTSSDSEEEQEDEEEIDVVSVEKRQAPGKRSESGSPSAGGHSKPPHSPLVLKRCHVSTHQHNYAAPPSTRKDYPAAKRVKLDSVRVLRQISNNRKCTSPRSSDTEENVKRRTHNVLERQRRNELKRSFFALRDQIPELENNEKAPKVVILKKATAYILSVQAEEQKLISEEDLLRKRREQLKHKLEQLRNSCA
Format: cell-based
Procedure: (§1) Cell culture conditions: The cells in the embodiments of the invention were purchased from Shanghai Cell Bank, Chinese Academy of Sciences. Human acute promyelocytic leukemia cells (HL60 cells) were cultured in RPMI-1640 (meilunbio, MA0215)^+20% FBS(manufacturer: Bi, product number: 04-001-1ACS)^+1% penicillin/streptomycin (manufacturer: Hyclone, product number: SH40003.01). The cell culture conditions were 5% CO2 and […]. When the cell coverage reached about 80%, the cells were passaged at a ratio of 1:3.
(§2) 2. Cell drug treatment and protein extraction 2.1 Cell treatment
(§3) The designated cells in the exponential growth phase were digested and plated into a 6-well plate at 1 10^6 cells per well. […]
(§4) By using the BCA protein concentration determination kit (from Thermo Fisher, Cat. No. 23225), the BSA standard determination solution and the supernatant in 2.2 to be tested (the supernatant can be diluted and then tested) were prepared according to the table 2 below. […] The plate was placed at 60′C for 10 min, and then the absorbance at 562 nim was detected. After the reading was recorded, a standard curve was plotted using concentration gradients of the standards, and the absorbance of the samples was substituted to calculate the protein concentration of the samples. […]
For `O=C1CCC(N2Cc3cc(C(=O)NCc4ccc(CN(CCO)CCc5ccc(Cl)c(Cl)c5)cc4)ccc3C2=O)C(=O)N1` (stereo not shown) [KT-002], the “degradation of e-Myc (c-Myc) protein in HL60 cells” value was “completely degrade”.

Each compound was assayed against T2, GSPT1 (Homo sapiens, UniProt P15170) (assay: Protein degradation experiment (Western blot), GSPT1 in HL60 cells). Details: 6 h of drug treatment, FIG. 1, at lower concentration (about 3 μm to 10 nmn).
T2 construct: endogenous in cells; host or cells: HL60 (human acute promyelocytic leukemia cells)
T2 sequence (P15170 whole entry): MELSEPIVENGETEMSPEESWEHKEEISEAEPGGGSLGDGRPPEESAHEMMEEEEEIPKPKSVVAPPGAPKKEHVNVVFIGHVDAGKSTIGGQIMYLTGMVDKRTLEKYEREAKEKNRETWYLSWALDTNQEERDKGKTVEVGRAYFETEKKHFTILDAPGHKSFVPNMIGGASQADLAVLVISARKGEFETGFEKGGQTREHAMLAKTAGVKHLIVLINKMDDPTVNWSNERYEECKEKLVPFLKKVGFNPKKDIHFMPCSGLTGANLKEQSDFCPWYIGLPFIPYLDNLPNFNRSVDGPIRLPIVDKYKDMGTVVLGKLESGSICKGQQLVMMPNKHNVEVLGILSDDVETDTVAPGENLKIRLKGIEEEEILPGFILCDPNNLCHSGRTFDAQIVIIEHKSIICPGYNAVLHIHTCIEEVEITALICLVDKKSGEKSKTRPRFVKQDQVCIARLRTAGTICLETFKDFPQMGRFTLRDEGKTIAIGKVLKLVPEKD
Format: cell-based
Procedure: as §1, §2, §3, §4
For `O=C1CCC(N2Cc3cc(C(=O)NCc4ccc(CN(CCO)CCc5ccc(Cl)c(Cl)c5)cc4)ccc3C2=O)C(=O)N1` (stereo not shown) [KT-002], the “degradation of GSPT1 protein in HL60 cells” value was “completely degrade”.
